Reference: PubChem BioAssay AID1062 (NMMLSC, 2008)
Activity calls are given as the source filed them.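 Rule for the calls: active = compounds blocking proteasome disassembly by more than 40% at the highest tested dose; inconclusive = compounds bright enough on their own to skew readings; inactive = the rest.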 Where a SMILES comes first, the peptide text is derived from it. The star is where a group is joined. Cbz = O=C(OCc1ccccc1)*

Biological target: 26S proteasome (lid disassembly, GFP-tagged; likely yeast)
Assay: inhibitors of ATP-dependent 26S proteasome disassembly, dose response, biochemical, bead-based flow cytometry, GFP-tagged lid (AID 1062)
Conditions: GFP-proteasome beads; for inhibition of disassembly: at 100 µM (top of the series); for EC50: disassembly inhibition

Cc1ccc2nc(NC(=O)C3CCCN(S(=O)(=O)c4cccc5nsnc45)C3)sc2c1 (stereo unspecified)
inhibition of disassembly: inactive

CCN(CC)c1ccc(-c2c(C#N)c(N)nc(OC)c2C#N)cc1
inhibition of disassembly: inactive

COC(=O)c1ccc2c(c1)N(Cc1nc(-c3ccc(Cl)cc3)oc1C)C(=O)C1CCCN21 (stereo unspecified)
EC50: > 100 µM (inactive)

O=c1cc(Nc2ccc3c(c2)OCCO3)[nH]c(=O)n1C1CCCCC1
inhibition of disassembly: inactive

COC(=O)c1ccc2c(c1)N(Cc1nc(-c3cccc(Cl)c3)oc1C)C(=O)C1CCCN21 (stereo unspecified)
inhibition of disassembly: inactive

Cc1noc(/C=C/c2ccco2)c1S(=O)(=O)N1CCC(C(=O)N2c3ccccc3CC2C)CC1 (stereo unspecified)
inhibition of disassembly: inactive

Cc1noc(/C=C/c2ccco2)c1S(=O)(=O)N1CCC(C(=O)N2CCc3ccccc3C2)CC1
inhibition of disassembly: inactive

N#Cc1cc2c(nc1SCC(=O)Nc1sc3c(c1C#N)CCC3)CCCCC2
inhibition of disassembly: inactive

O=C1CC(c2ccccc2)Cc2nc(N3CCc4ccccc43)ncc21 (stereo unspecified)
inhibition of disassembly: inactive

O=C(CN1C(=O)C2CCCN2c2ncc(Cl)cc21)NCc1ccc2c(c1)OCO2 (stereo unspecified)
EC50: inactive

Cc1ccc(C)c(N2CCN(S(=O)(=O)c3c(C)noc3/C=C/N(C)C)CC2)c1
inhibition of disassembly: inactive

CC(C)C[C@@H](C=O)NC(=O)[C@H](CC(C)C)NC(=O)[C@H](CC(C)C)NC(=O)OCc1ccccc1 (Cbz-Leu-Leu-Leu-aldehyde)
inhibition of disassembly: inactive

CCCOc1ccc(/C=c2\sc3nc(-c4ccco4)nn3c2=O)cc1OCC
inhibition of disassembly: inactive

O=C(Nc1ccccc1)C1=C(O)CC(c2ccco2)CC1=Nc1ccccc1 (stereo unspecified)
EC50: > 100 µM (inactive)

CC(=O)N1C(=O)C(=C2C=C(C)OC(C)=C2)c2ccccc21
EC50: 61.7 µM

Cc1cccc(NC(=O)c2sc3nc(-c4ccc(F)cc4)cn3c2C)n1
EC50: 25.9 µM

Cc1noc(/C=C/c2ccco2)c1S(=O)(=O)N1CCC(C(=O)N(C)Cc2ccccc2)CC1
inhibition of disassembly: inactive

COC(=O)[C@H]1[C@H]2C[C@@H]3c4[nH]c5cc(OC)ccc5c4CCN3C[C@H]2C[C@@H](OC(=O)c2cc(OC)c(OC)c(OC)c2)[C@@H]1OC
inhibition of disassembly: inactive

Fc1ccc2nc(Nc3nc4c(s3)CCCC4)sc2c1
inhibition of disassembly: inactive

COC(=O)C1=C(C)N=c2s/c(=C/c3cccs3)c(=O)n2C1c1cccs1 (stereo unspecified)
inhibition of disassembly: inactive

CCOc1ccc(/C=c2\sc3nc(-c4ccco4)nn3c2=O)cc1OCC
inhibition of disassembly: inactive
